The target in series [1] is T1, detergent-solubilized EmrE (Escherichia coli, UniProt P23895).
T1 construct: full-length EmrE (110 aa), organic-extracted, solubilized in DDM, purified from E. coli BL21(DE3); unfused
The series can be described thus: tryptophan fluorescence quenching titration (excitation […] nm). Format: binding.

Series [2] deals with the molecule itself. The series is described as follows: SEC; detergent-free fusion proteins after affinity purification; SEC buffer 20 mM Tris pH 7.5, 50 mM NaCl, 1 mM EDTA pH 8.0; column calibrated with Bio-Rad standards; self-association of the fusion. A general note: In gel filtration, larger molecules generally elute earlier.

“And” between values parts separate entries of the source, which are not always exact repeats. Identical values can stand only once. Like-named read-outs stand apart in the source and are kept apart here.

This is an account of results in article PMC4403311, “Making water-soluble integral membrane proteins in vivo using an amphipathic protein fusion strategy” (Nature Communications, 2015).

As to `c1ccc([P+](c2ccccc2)(c2ccccc2)c2ccccc2)cc1` [tetraphenylphosphonium], the dissociation constant Kd entry in series [1] (20 mM Tris-HCl pH 7.5, 150 mM NaCl, 0.08% w/v DDM, 10 μM protein, room temperature) was “higher for ApoAI*-solubilized EmrE compared with its detergent-solubilized counterpart”.

As for `CC[n+]1c(-c2ccccc2)c2cc(N)ccc2c2ccc(N)cc21` [ethidium bromide], in series [1] (read-out: Kd), the equilibrium dissociation constant (Kd) came to 5.4 ± 0.47 µM.

B1: ΔspMBP-EmrE-ApoAI* (other)
chain: MNPYIYLGGAILAEVIGTTLMKFSEGFTRLWPSVGTIICYCASFWLLAQTLAYIPTGIAYAIWSGVGIVLISLLSWGFFGQRLDLPAIIGMMLICAGVLIINLLSRSTPHLKLLDNWDSVTSTFSKLREQLGPVTQEFWDNLEKETEGLRQEMSKDLEEVKAKVQPYLDDFQKKWQEEMELYRQKVEPLRAELQEGARQKLHELQEKLSPLGEEMRDRARAHVDALRTHLAPYSDELRQRLAARLEALKENGGARLAEYHAKATEHLSTLSEKAKPALEDLRQGLLPVLESFKVSFLSALEEYTKKLNTQ
As for B1, in series [2], the “stoichiometry N” value was 2 and 4.

B2: ΔspMBP-cyt b5-ApoAI* (other)
chain: MAEQSDEAVKYYTLEEIQKHNHSKSTWLILHHKVYDLTKFLEEHPGGEEVLREQAGGDATENFEDVGHSTDAREMSKTFIIGELHPDDRPKLNKPPETLITTIDSSSSWWTNWVIPAISAVAVALMYRLYMAEDLKLLDNWDSVTSTFSKLREQLGPVTQEFWDNLEKETEGLRQEMSKDLEEVKAKVQPYLDDFQKKWQEEMELYRQKVEPLRAELQEGARQKLHELQEKLSPLGEEMRDRARAHVDALRTHLAPYSDELRQRLAARLEALKENGGARLAEYHAKATEHLSTLSEKAKPALEDLRQGLLPVLESFKVSFLSALEEYTKKLNTQ
B2: the “stoichiometry N” value in series [2] is 8 and 4.

In general, Kd refers to a measure of binding affinity in units of concentration. Broadly, the stoichiometry N is the number of molecules, sites or subunits per partner or assembly.
